Patent publication US20030105046A1, “Interleukin converting enzyme (ICE) and central nervous system damage” (The General Hospital Corporation, priority 1997, published 2003)

Assays:
[1] = tested on: apoptosis in an cell-free system; conditions: Nicholson et al., Nature 376 (1995), read-out: Dose causing 50% inhibition of apoptosis; cited from earlier work
[2] = tested on: traumatic brain injury in C57BL/6 mice; test: Weight drop traumatic brain injury, lesion volume by TTC staining; format: in vivo, mouse
Description: Brain trauma experiments and lesion quantification were performed essentially as described (Chan, P. H., et al., Ann. NY Acad. Sci. 738:93-103 (1994)). Spontaneously ventilating adult mice were initially anesthetized with halothane in 70% N2O and 30% O2, and fixed in a stereotactic frame. Before trauma, an atraumatic craniectomy was performed by removing the right parietal bone posterior to the coronal, lateral to the sagittal, and anterior to the lambdoid suture. Laterally, the craniectomy was extended to the insertion of the temporalis muscle. […] A 20 g weight was dropped inside a cylinder from a height of 150 mm onto the piston (final speed v=1.70 m/s). Twenty-four hours after trauma, brains were removed and sectioned into five coronal (2 mm) slices and stained with 2% 2,3,5-triphenyl tetrazolium chloride (TTC) as described for a weight drop trauma model (Chan, P. H., et al., Ann. NY Acad. Sci. 738:93-103 (1994)). Surgical procedure as well as quantification of lesion size was performed by an investigator naive to the animal identity. Lesion volume was calculated using an image analysis system (M4, Imaging Research, St. Catherines, Ontario, Canada) from the total lesion volume integrated from the volumes of each single section, after subtracting the volume of the deficient cortex as caused by piston penetration. The volume of the piston penetration was calculated as that of a cylinder (pr^2h=3.14×1.5^2×3 mm^3=21.2 mm^3), where r is the radius of the piston, and h the depth of penetration. The trauma protocol was approved by the IACUC. The NSE-M17Z and wild-type littermate mice were bred from C57BL/6 background, and the wild-type mice used for zVAD-fink injection experiments were C57BL/6 (Taconic Farms, Germantown, N.Y.). NSE-M17Z mice were genotyped as previously described (Friedlander, R. M., et al., J. Exp. Med. 185:933-940 (1997)). zVAD-fmk (480 ng) or vehicle (DMSO 0.4%) was injected i.c.v. (2 μl; bregma −0.9 mm lateral, −0.1 mm posterior, −3.1 mm deep) 1 hour before or 1 hour after trauma.
Data are presented as mean±SEM. Statistical comparisons were made by Student's t-test. For comparison of lesion size two-way ANOVA followed by Tukey posthoc tests was applied. P<0.05 was considered statistically significant. For statistical evaluation by Student's t-test, data on OH production was log transformed.

[3] = biological target: Interleukin-1beta converting enzyme (ICE; caspase-1), wild-type murine, endogenous (mouse) (UniProt P29452); test: cell-based or functional assay
Sequence of UniProt P29452 (P29452 whole entry D56N): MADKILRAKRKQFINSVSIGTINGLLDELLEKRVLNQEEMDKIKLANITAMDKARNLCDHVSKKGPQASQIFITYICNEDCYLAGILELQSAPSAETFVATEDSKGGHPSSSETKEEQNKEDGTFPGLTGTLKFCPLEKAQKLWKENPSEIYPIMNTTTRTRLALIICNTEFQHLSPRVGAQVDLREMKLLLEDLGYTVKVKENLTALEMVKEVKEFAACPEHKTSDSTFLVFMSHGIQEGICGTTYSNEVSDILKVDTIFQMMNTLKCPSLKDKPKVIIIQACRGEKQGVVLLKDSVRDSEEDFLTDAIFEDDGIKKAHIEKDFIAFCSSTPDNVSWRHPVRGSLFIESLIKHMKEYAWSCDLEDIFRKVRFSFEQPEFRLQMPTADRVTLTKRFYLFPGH

Ac-DEVD-CHO
IC50 [1]: 1000 nM

N-benzyloxycarbonyl-Val-Ala-Asp-fluoromethylketone [zVAD-fink]
Total lesion volume vs. vehicle (significance) ([2]; 480 ng i.c.v. 1 hour after trauma, 24 hours following impact): not significantly different | Size of lesion in the two most anterior sections (2-6 mm) vs. vehicle ([2]; 480 ng i.c.v. 1 hour after trauma, P<0.05, n=5): significantly reduced | Reduction of total lesion volume vs. vehicle-injected mice ([2]; 480 ng i.c.v. 1 hour prior to impact, lesion assessed 24 hours following trauma): 53% | Reduction of lesion volume vs. vehicle-injected mice ([2]; 480 ng i.c.v. one hour following trauma, lesion assessed 24 hours following trauma): 19%

fused mutant ICE (C284G)-lacZ protein (M17Z), expressed in neurons of NSE-M17Z transgenic mice (from UniProt P29452 1-402)
mature IL-1β in whole brain lysates after systemic LPS challenge (ELISA specific for mature IL-1β) [3]: 74.7 % less
